# Assay results: PubChem BioAssay AID1963825 (Molecular Pharmacology Branch, DTP, NCI, 2024)
# pIC50: −log10 of the molar value.
# Assay: Anticancer human tumor 997537-175-T-J1-PDC patient-derived colon adenocarcinoma cell line growth inhibition [POLQ]
# Conditions: 997537-175-T-J1-PDC complex spheroid viability, combination with POLQ inhibitors; for pIC50: curve of first compound; for viability, T/C: stronger effect = lower value
# Summary of the method: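 PDC + HUVEC + MSC complex spheroids; POLQ inhibitors ± partner drugs; top conc. at/near clinical Cmax, else 10 microM (SN-38 1 microM), half-log dilutions; 37 degrees C, 5% CO2.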
# [1] = second compound 0.0316 µM, first compound 0.0316 µM
# [2] = second compound 0.0316 µM, first compound 0.1 µM
# [3] = second compound 0.0316 µM, first compound 0.316 µM
# [4] = second compound 0.0316 µM, first compound 1 µM
# [5] = second compound 0.0316 µM, first compound 3.16 µM
# [6] = second compound 0.0316 µM, first compound 10 µM
# [7] = second compound 0.1 µM, first compound 0.0316 µM
# [8] = second compound 0.1 µM, first compound 0.1 µM
# [9] = second compound 0.1 µM, first compound 0.316 µM
# [10] = second compound 0.1 µM, first compound 1 µM
# [11] = second compound 0.1 µM, first compound 3.16 µM
# [12] = second compound 0.1 µM, first compound 10 µM
# [13] = second compound 0.316 µM, first compound 0.0316 µM
# [14] = second compound 0.316 µM, first compound 0.1 µM
# [15] = second compound 0.316 µM, first compound 0.316 µM
# [16] = second compound 0.316 µM, first compound 1 µM
# [17] = second compound 0.316 µM, first compound 3.16 µM
# [18] = second compound 0.316 µM, first compound 10 µM
# [19] = second compound 1 µM, first compound 0.0316 µM
# [20] = second compound 1 µM, first compound 0.1 µM
# [21] = second compound 1 µM, first compound 0.316 µM
# [22] = second compound 1 µM, first compound 1 µM
# [23] = second compound 1 µM, first compound 3.16 µM
# [24] = second compound 1 µM, first compound 10 µM
# [25] = second compound 3.16 µM, first compound 0.0316 µM
# [26] = second compound 3.16 µM, first compound 0.1 µM
# [27] = second compound 3.16 µM, first compound 0.316 µM
# [28] = second compound 3.16 µM, first compound 1 µM
# [29] = second compound 3.16 µM, first compound 3.16 µM
# [30] = second compound 3.16 µM, first compound 10 µM
# [31] = second compound 10 µM, first compound 0.0316 µM
# [32] = second compound 10 µM, first compound 0.1 µM
# [33] = second compound 10 µM, first compound 0.316 µM
# [34] = second compound 10 µM, first compound 1 µM
# [35] = second compound 10 µM, first compound 3.16 µM
# [36] = second compound 10 µM, first compound 10 µM
# 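Further: luminescence signal used as a surrogate for viable cells; spheroids exposed to drugs for seven days before readout.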
smiles,measurement,setting,value
CCc1cc2c(N3CCc4c(cc(Cn5ccnc5)cc4-c4cn(C)nc4C(F)(F)F)C3=O)ccnc2c(OC)n1 + Cc1cccc(N(C)C(=O)C2C(O)CCN2c2nc(C)cc(C(F)(F)F)c2C#N)c1,pIC50,second compound 0.0316 µM,< 5.00
same,pIC50,second compound 0.1 µM,< 5.00
same,pIC50,second compound 0.316 µM,< 5.00
same,pIC50,second compound 1 µM,< 5.00
same,pIC50,second compound 3.16 µM,< 5.00
same,pIC50,second compound 10 µM,< 5.00
same,"viability, T/C",[1],104%
same,"viability, T/C",[2],107%
same,"viability, T/C",[3],90.7%
same,"viability, T/C",[4],93.2%
same,"viability, T/C",[5],90.6%
same,"viability, T/C",[6],73.4%
same,"viability, T/C",[7],110%
same,"viability, T/C",[8],110%
same,"viability, T/C",[9],94.8%
same,"viability, T/C",[10],95.5%
same,"viability, T/C",[11],71%
same,"viability, T/C",[12],58.3%
same,"viability, T/C",[13],107%
same,"viability, T/C",[14],108%
same,"viability, T/C",[15],86.2%
same,"viability, T/C",[16],72%
same,"viability, T/C",[17],78.5%
same,"viability, T/C",[18],65.5%
same,"viability, T/C",[19],95.9%
same,"viability, T/C",[20],104%
same,"viability, T/C",[21],100%
same,"viability, T/C",[22],83.3%
same,"viability, T/C",[23],64.9%
same,"viability, T/C",[24],66.5%
same,"viability, T/C",[25],83.9%
same,"viability, T/C",[26],86.9%
same,"viability, T/C",[27],96.3%
same,"viability, T/C",[28],81.5%
same,"viability, T/C",[29],81.7%
same,"viability, T/C",[30],70.1%
same,"viability, T/C",[31],87.8%
same,"viability, T/C",[32],92.7%
same,"viability, T/C",[33],79.5%
same,"viability, T/C",[34],67.1%
same,"viability, T/C",[35],64.1%
same,"viability, T/C",[36],75.2%
COc1ccc([C@@H](O)c2cc(-c3ncnc4cc(N5CCOCC5)ccc34)c(F)cc2Cl)nn1 + Nc1ccc(C#CCN(C(=O)Cc2ncc(C(F)(F)F)cc2C(F)(F)F)c2ccc(F)cc2)nn1,pIC50,second compound 0.0316 µM,< 5.00
same,pIC50,second compound 0.1 µM,< 5.00
same,pIC50,second compound 0.316 µM,< 5.00
same,pIC50,second compound 1 µM,< 5.00
same,pIC50,second compound 3.16 µM,< 5.00
same,pIC50,second compound 10 µM,< 5.00
same,"viability, T/C",[1],95%
same,"viability, T/C",[2],110%
same,"viability, T/C",[3],100%
same,"viability, T/C",[4],101%
same,"viability, T/C",[5],85%
same,"viability, T/C",[6],74.3%
same,"viability, T/C",[7],98.8%
same,"viability, T/C",[8],110%
same,"viability, T/C",[9],99%
same,"viability, T/C",[10],98.3%
same,"viability, T/C",[11],71.5%
same,"viability, T/C",[12],71%
same,"viability, T/C",[13],110%
same,"viability, T/C",[14],109%
same,"viability, T/C",[15],91%
same,"viability, T/C",[16],99.1%
same,"viability, T/C",[17],96.1%
same,"viability, T/C",[18],65.6%
same,"viability, T/C",[19],96%
same,"viability, T/C",[20],98.2%
same,"viability, T/C",[21],94.7%
same,"viability, T/C",[22],91.6%
same,"viability, T/C",[23],79.3%
same,"viability, T/C",[24],94.2%
same,"viability, T/C",[25],107%
same,"viability, T/C",[26],99.1%
same,"viability, T/C",[27],96.7%
same,"viability, T/C",[28],96.6%
same,"viability, T/C",[29],87.6%
same,"viability, T/C",[30],82.1%
same,"viability, T/C",[31],99.5%
same,"viability, T/C",[32],107%
same,"viability, T/C",[33],95.7%
same,"viability, T/C",[34],95.8%
same,"viability, T/C",[35],85.3%
same,"viability, T/C",[36],92.7%
